Experimental data published in US7888386B2, “3-(phenoxyphenylmethyl)pyrrolidine compounds” (Theravance, Inc., priority 2008, dated 2011).
Like-named read-outs stand apart in the source and are kept apart here.

Experiments:
hSERT = target: T1, hSERT (Homo sapiens, UniProt P31645); assay: hSERT binding assay (Assay 1)
T1 construct: expressed in transfected cells; host or cells: HEK-293 derived cell line, stably transfected; membrane preparation
Procedure: (§1) Membrane radioligand binding assays were used to measure competitive inhibition of labeled ligand (^3H-citalopram or ^3H-nisoxetine or ^3H-WIN35428) binding to membranes prepared from cells expressing the respective human recombinant transporter (hSERT or hNET or hDAT) in order to determine the pKi values of test compounds at the transporters.
(§2) Recombinant human embryonic kidney (HEK-293) derived cell lines stably transfected with hSERT or hNET, respectively, were grown in DMEM medium supplemented with 10% dialyzed FBS (for hSERT) or FBS (for hNET), 100 μg/ml penicillin, 100 μg/ml streptomycin, 2 mM L-glutamine and 250 μg/ml of the aminoglycoside antibiotic G418, in a 5% CO2 humidified incubator at 37° C. When cultures reached 80% confluence, the cells were washed thoroughly in PBS (without Ca^2+ and Mg^2+) and lifted with 5 mM EDTA in PBS. Cells were pelleted by centrifugation, resuspended in lysis buffer (10 mM Tris-HCl, pH 7.5 containing 1 mM EDTA), homogenized, pelleted by centrifugation, then resuspended in 50 mM Tris-HCl, pH 7.5 and 10% sucrose at 4° C. Protein concentration of the membrane suspension was determined using a Bio-Rad Bradford Protein Assay kit. Membranes were snap frozen and stored at −80° C. Chinese hamster ovary membranes expressing hDAT (CHO-DAT) were purchased from PerkinElmer and stored at −80° C.
(§3) Stock solutions (10 mM in DMSO) of test compound were prepared and serial dilutions made using Dilution Buffer (50 mM Tris-HCl, 120 mM NaCl, 5 mM KCl, pH 7.4, 0.1% BSA, 400 μM ascorbic acid).
(§4) Following a 60 minute incubation at 22° C. (or a period sufficient to reach equilibrium), the membranes were harvested by rapid filtration over a 96-well UniFilter GF/B plate, pretreated with 0.3% polyethyleneimine, and washed 6 times with 300 μl wash buffer (50 mM Tris-HCl, 0.9% NaCl, pH 7.5 at 4° C.). Plates were dried overnight at room temperature, ˜45 μl of MicroScint™-20 (Perkin Elmer) added and bound radioactivity quantitated via liquid scintillation spectroscopy. Competitive inhibition curves and saturation isotherms were analyzed using GraphPad Prism Software package (GraphPad Software, Inc., San Diego, Calif.). IC50 values were generated from concentration response curves using the Sigmoidal Dose Response (variable slope) algorithm in Prism GraphPad.

hNET = target: T2, hNET (Homo sapiens, UniProt P23975); assay: hNET binding assay (Assay 1); conditions: read-out: NET pKi (converted)
T2 construct: expressed in transfected cells; host or cells: HEK-293 derived cell line, stably transfected; membrane preparation
T2 sequence (P23975 whole entry): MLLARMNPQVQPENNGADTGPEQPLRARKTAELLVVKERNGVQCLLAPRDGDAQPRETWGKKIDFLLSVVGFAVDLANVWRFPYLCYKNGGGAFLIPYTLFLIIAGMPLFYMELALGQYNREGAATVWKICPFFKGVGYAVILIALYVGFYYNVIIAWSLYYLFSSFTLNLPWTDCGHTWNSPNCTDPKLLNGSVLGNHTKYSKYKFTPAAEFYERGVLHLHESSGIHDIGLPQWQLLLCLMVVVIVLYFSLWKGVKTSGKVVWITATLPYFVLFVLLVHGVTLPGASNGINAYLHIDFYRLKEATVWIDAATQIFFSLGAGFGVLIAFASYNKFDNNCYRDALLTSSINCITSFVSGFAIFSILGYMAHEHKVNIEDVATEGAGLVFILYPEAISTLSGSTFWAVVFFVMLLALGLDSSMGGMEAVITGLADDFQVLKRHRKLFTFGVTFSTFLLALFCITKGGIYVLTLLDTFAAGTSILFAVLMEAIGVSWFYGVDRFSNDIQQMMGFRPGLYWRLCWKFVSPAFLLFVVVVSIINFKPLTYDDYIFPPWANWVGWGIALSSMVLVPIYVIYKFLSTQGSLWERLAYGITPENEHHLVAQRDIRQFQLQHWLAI
Procedure: as §1, §2, §3, §4

[1] = ratio of binding Ki at hSERT to Ki at hNET, rounded off to the nearest tenth
[2] = membranes of HEK-293 cells expressing hNET, 1.0 nM 3H-nisoxetine
[3] = ratio of SERT Ki to NET Ki (binding)
[4] = ratio of binding Ki at SERT to Ki at NET, the tables list only compounds with a ratio in the range 0.1-100
[5] = hNET binding, the tables list only compounds with NET pKi≧8
[6] = ratio of SERT Ki to NET Ki from binding assays

T1 sequence (P31645 whole entry): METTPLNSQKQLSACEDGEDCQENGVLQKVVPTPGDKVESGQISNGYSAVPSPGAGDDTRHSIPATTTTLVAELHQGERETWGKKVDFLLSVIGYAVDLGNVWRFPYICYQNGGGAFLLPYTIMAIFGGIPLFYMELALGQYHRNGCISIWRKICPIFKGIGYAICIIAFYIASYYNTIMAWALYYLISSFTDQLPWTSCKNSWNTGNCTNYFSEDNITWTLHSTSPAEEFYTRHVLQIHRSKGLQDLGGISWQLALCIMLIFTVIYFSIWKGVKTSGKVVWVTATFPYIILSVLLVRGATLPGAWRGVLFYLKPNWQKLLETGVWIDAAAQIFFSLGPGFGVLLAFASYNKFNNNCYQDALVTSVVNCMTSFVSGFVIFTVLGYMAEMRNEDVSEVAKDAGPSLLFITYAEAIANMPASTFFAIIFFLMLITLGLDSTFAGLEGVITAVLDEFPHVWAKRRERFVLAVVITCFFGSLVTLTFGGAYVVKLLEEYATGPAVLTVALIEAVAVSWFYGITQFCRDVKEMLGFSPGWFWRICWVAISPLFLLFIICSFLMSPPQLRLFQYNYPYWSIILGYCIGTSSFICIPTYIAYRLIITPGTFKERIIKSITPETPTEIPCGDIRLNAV

Row | SMILES | SERT Ki/NET Ki (hSERT; [1]) | Ki (hNET; [2]) [nM] | SERT Ki/NET Ki (hSERT; [3]) | Ki (hNET; hNET binding) [nM] | also measured
1 | COc1ccccc1OC(c1cccc(C(N)=O)c1)C1CCNC1 (stereo not drawn) [Compound 20-30] | 25 | 2.51 | – | – | –
2 | Cc1ccc(F)c(O[C@@H](c2ccccc2)[C@@H]2CCNC2)c1Cl [40-30] | – | – | 0.1 | 5.01 | –
3 | Ic1cccc(OC(c2ccccc2)C2CCNC2)c1 (stereo not drawn) [Compound 21-6] | 0.2 | 3.98 | – | – | –
4 | CCc1cc(F)cc(F)c1O[C@@H](c1ccccc1)[C@H]1CCNC1 [44-4] | – | – | – | – | SERT Ki/NET Ki (hSERT; [4]): 0.3; Ki (hNET; [5]): 0.631 nM
5 | Cc1cc(Cl)c(OC(c2ccccc2)C2CCNC2)cc1F (stereo not drawn) [42-4] | – | – | 0.5 | 2.51 | –
6 | Fc1cc(F)c(Cl)c(OC(c2ccccc2Cl)C2CCNC2)c1Cl (stereo not drawn) [48-4] | – | – | – | – | SERT Ki/NET Ki (hSERT; [4]): 0.2; Ki (hNET; [5]): 7.94 nM
7 | Fc1cc(F)cc(C(Oc2c(Cl)c(F)cc(F)c2Cl)C2CCNC2)c1 (stereo not drawn) [48-1] | – | – | – | – | SERT Ki/NET Ki (hSERT; [4]): 2; Ki (hNET; [5]): 0.501 nM
8 | Fc1cc(F)cc([C@@H](Oc2c(F)ccc(F)c2Cl)[C@@H]2CCNC2)c1 [41-31] | – | – | 0.6 | 0.251 | –
9 | CSc1ccccc1OC(c1ccccc1)C1CCNC1 (stereo not drawn) [Compound 19-30] | 63 | 0.398 | – | – | –
10 | COc1ccc(Cl)cc1OC(c1ccccc1)C1CCNC1 (stereo not drawn) [29-22] | – | – | – | – | SERT Ki/NET Ki (hSERT; [6]): 2.5; Ki (hNET; hNET binding assay): 2.51 nM
11 | Cc1cccc(OC(c2ccccc2)C2CCNC2)c1C (stereo not drawn) [Compound 25-23] | 0.1 | 1.58 | – | – | –
12 | Cc1ccc(OC(c2ccccc2)C2CCNC2)cc1F (stereo not drawn) [33-2] | – | – | – | – | SERT Ki/NET Ki (hSERT; [6]): 0.1; Ki (hNET; hNET binding assay): 5.01 nM
13 | Clc1c(Oc2ccccc2)cccc1OC(c1ccccc1)C1CCNC1 (stereo not drawn) [Compound 25-15] | 0.2 | 2.51 | – | – | –
14 | Fc1cc(F)cc(C(Oc2ccc(F)c(F)c2F)C2CCNC2)c1 (stereo not drawn) [37-1] | – | – | 4 | 5.01 | –
15 | Cc1ccc(Cl)c(OC(c2ccc(Cl)cc2)C2CCNC2)c1Cl (stereo not drawn) [41-19] | – | – | 0.6 | 1.26 | –
16 | Fc1cc(F)cc(C(Oc2c(F)ccc(Cl)c2F)C2CCNC2)c1 (stereo not drawn) [41-6] | – | – | 1 | 0.501 | –
17 | Fc1cc(F)cc(C(Oc2c(F)ccc(F)c2Cl)C2CCNC2)c1 (stereo not drawn) [41-30] | – | – | 32 | 0.2 | –
18 | Fc1cc(Cl)cc(C(Oc2ccc(Cl)cc2F)C2CCNC2)c1 (stereo not drawn) [28-11] | – | – | – | – | SERT Ki/NET Ki (hSERT; [6]): 0.8; Ki (hNET; hNET binding assay): 2.51 nM
19 | COC(=O)c1c(F)cccc1OC(c1ccccc1)C1CCNC1 (stereo not drawn) [Compound 25-34] | 100 | 1 | – | – | –
20 | Fc1cc(F)cc(C(Oc2cc(F)cc(F)c2F)C2CCNC2)c1 (stereo not drawn) [39-3] | – | – | 0.4 | 6.31 | –
21 | FC(F)(F)c1ccccc1OC(c1ccccc1)C1CCNC1 (stereo not drawn) [Compound 19-13] | 7.9 | 2.51 | – | – | –
22 | Cc1ccc(Cl)c(O[C@H](c2cc(F)cc(F)c2)[C@@H]2CCNC2)c1F [41-9] | – | – | 0.8 | 0.794 | –
23 | Cc1ccc(F)c(O[C@@H](c2ccccc2)[C@H]2CCNC2)c1F [40-26] | – | – | 20 | 0.251 | –
24 | c1ccc(Cc2ccccc2OC(c2ccccc2)C2CCNC2)cc1 (stereo not drawn) [Compound 19-21] | 5 | 5.01 | – | – | –
25 | CCc1cc(F)ccc1OC(c1cc(F)cc(F)c1)C1CCNC1 (stereo not drawn) [28-14] | – | – | – | – | SERT Ki/NET Ki (hSERT; [6]): 3.2; Ki (hNET; hNET binding assay): 1.58 nM
26 | Fc1cc(F)cc(C(Oc2ccc(Cl)cc2F)C2CCNC2)c1 (stereo not drawn) [28-9] | – | – | – | – | SERT Ki/NET Ki (hSERT; [6]): 0.3; Ki (hNET; hNET binding assay): 3.16 nM
27 | Cc1ccc(F)c(OC(c2ccccc2)C2CCNC2)c1 (stereo not drawn) [29-8] | – | – | – | – | SERT Ki/NET Ki (hSERT; [6]): 3.2; Ki (hNET; hNET binding assay): 1.58 nM
28 | COc1ccccc1OC(c1ccccc1OC(F)(F)F)C1CCNC1 (stereo not drawn) [Compound 20-23] | 1.6 | 5.01 | – | – | –
29 | Brc1cccc(OC(c2ccccc2)C2CCNC2)c1 (stereo not drawn) [Compound 21-5] | 0.2 | 3.16 | – | – | –
30 | Fc1cc(F)cc([C@H](Oc2c(F)ccc(F)c2F)[C@H]2CCNC2)c1 [41-1] | – | – | 100 | 0.251 | –
